Measurements published in publication PMC8536575, “Acute effects of the imidacloprid metabolite desnitro-imidacloprid on human nACh receptors relevant for neuronal signaling” (Archives of Toxicology, 2021).
Several values for one entry are separate records, joined by “and”; a condition that tells them apart may be missing. Identical values can stand only once.

Columns and labels:
[1] = molecular target: nAChRs on SH-SY5Y cells (Homo sapiens, UniProt P36544); experiment: [Ca2+]i measurements in SH-SY5Y cells (agonist effect); assay type: cell-based; conditions: presence of PNU
nAChRs on SH-SY5Y cells (Homo sapiens, UniProt P36544), sequence (P36544 23-502): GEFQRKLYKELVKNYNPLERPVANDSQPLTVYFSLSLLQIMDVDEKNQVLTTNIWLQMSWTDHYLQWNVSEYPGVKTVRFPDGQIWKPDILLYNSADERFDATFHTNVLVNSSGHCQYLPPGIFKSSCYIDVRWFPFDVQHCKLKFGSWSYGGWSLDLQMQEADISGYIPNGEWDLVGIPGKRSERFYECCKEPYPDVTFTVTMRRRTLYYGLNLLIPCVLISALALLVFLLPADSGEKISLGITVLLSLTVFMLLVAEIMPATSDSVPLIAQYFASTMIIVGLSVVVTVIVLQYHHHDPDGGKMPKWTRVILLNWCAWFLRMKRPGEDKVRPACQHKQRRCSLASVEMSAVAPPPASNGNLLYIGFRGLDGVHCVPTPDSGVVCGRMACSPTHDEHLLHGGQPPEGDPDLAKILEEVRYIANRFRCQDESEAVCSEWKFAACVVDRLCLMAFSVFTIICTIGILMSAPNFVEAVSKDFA
Method: (§1) SH-SY5Y cells were cultured as previously described (Attoff et al. [2016]). Briefly, they were cultured in MEM supplemented with 10% fetal bovine serum (Gibco, 31330095), 1% non-essential amino acid solution (Gibco, 11140035), 2 mM L-glutamine (Gibco, 25030024), 100 μg/ml streptomycin, and 100 U/ml penicillin (Gibco, 15140122). For maintenance culture, SH-SY5Y cells were seeded at 27,000 cells/cm^2 in 75 cm^2 cell culture flasks (Corning). The cells were passaged once a week using TrypLE Express Enzyme (Gibco). SH-SY5Y cells were differentiated into a neuronal-like phenotype by exchanging the maintenance medium with differentiation medium consisting of DMEM/F12 (Gibco, 31330095) supplemented with 1 mM L-glutamine (Gibco, 25030024), 100 μg streptomycin/mL, 100 U penicillin/mL, 1 × N2-supplement (Gibco, 17502048) and 1 µM all-trans retinoic acid (RA, Sigma, R2625) 24 h after seeding. The cells were incubated in 100% humidity at 37 °C in air with 5% CO2.
(§2) To measure acute changes in the average [Ca^2+]i of a population, SH-SY5Y cells were examined in the 96-well plate fluorescence reader FlexStation II (Molecular Devices) using the fluorophore Fura-2AM. SH-SY5Y (35,000 cells/well; 109,375 cells/cm^2) were seeded in maintenance culture medium in black 96-well plates with clear bottom (Corning, #3603). 24 h after seeding, maintenance medium was replaced with differentiation medium. After 72 h of differentiation, Fura-2AM dissolved in DMSO and diluted in KRH buffer (125 mM NaCl, 5 mM KCl, 1.2 mM MgSO4, 1.2 mM KH2PO4, 2.0 mM CaCl2, 6.0 mM D-glucose, and 25 mM HEPES (free acid), pH adjusted to 7.4 by 1.0 M NaOH) were added to the medium to a final concentration of 4 µM (Gustafsson et al. [2010]). The plates were incubated for 30 min at 37 °C before cells were washed once with 200 µl KRH buffer. 90 µl of KRH buffer without or with 10 µM PNU-120596 (PNU) and/or 125 µM mecamylamine (Mec) and/or test chemicals in different concentrations for antagonist experiments were added to the Fura-2AM-loaded cells. The plate was again incubated for 20 min to allow full hydrolysis of the AM group before the experiment. The fluorescence was assessed at 37 °C in the fluorescence plate reader (FlexStation II; Molecular Devices) at two different excitation wavelengths, 340 nm for Ca^2+-bound Fura-2 and 380 nm for free Fura-2, and at 510 nm emission, every 3.1 s using bottom read settings. After 26–29 s of initial baseline recording of the fluorescence intensity, 10 µl of the compound dilution (10 times higher than the final concentration to the cells) was transferred automatically by the FlexStation II (“Flex mode”) to the cell plate wells (five wells per concentration) and the fluorescence intensity was monitored for another 150 s. The ratio of fluorescence intensity at 340/380 nm was determined and the mean values from the baseline recording before the addition of test compounds was set to zero. The acute change in the Ca^2+ influx after the addition of the compounds was quantified as the area under the curve (AUC) using the SoftMax Pro 4.8 software (Molecular Devices). All test compounds were dissolved in DMSO. Compounds were diluted in KRH buffer in 1:3 series, with 100 µM as the highest concentration. As a negative control, 0.1% DMSO in KRH buffer was used.

[2] = test system: nAChRs on SH-SY5Y cells; experiment: as above; assay type: cell-based, human
Method: as §1, §2

[3] = test system: nAChRs on LUHMES neurons; experiment: Desensitization of nAChR agonist-evoked [Ca2+]i responses of LUHMES neurons; assay type: cell-based, human
Method: Ca^2+-imaging was performed using HT Functional Drug Screening System FDSS/µCELL (Hamamatsu Photonics) at nominal 37 °C. The FDSS/µCell system enables the indirect recording of changes of [Ca^2+]i via a Ca^2+-sensitive fluorescent dye. The fluorescence signal of a complete 384-well plate is acquired at once with a high-speed and high-sensitivity digital ImagEM X2 EM-CCD camera (Electron Multiplying Charge-Coupled Device, Hamamatsu Photonics), but with limited spatial resolution. Therefore, the software only determines the mean fluorescence signal of each well rather than of individual cells. For compound application, the integrated dispenser head with 384 pipette tips was used, which can add the test compound to all wells simultaneously. Cells were preincubated with Cal-520 AM (AAT Bioquest) at a concentration of 1 µM for 1 h at 37 °C. For recording, the medium was exchanged by a buffer solution containing [mM]: 135 NaCl, 5 KCl, 0.2 MgCl2, 2.5 CaCl2, 10 HEPES, and 10 D-glucose, pH 7.4. Test compound application was executed after obtaining a 1.5 min baseline recording. Where applicable, a second application was executed 4.5 min after the first application. The total recording never exceeded 8 min.
For the high-throughput Ca^2+-imaging data obtained in LUHMES cells, an offset correction using the FDSS software (version 3.2) was performed. Afterward, the data were exported and further analyzed with scripts written in R (version 3.6.3) (R Core Team [2020]). The concentration–response curves were fitted using a log-logistic model described by Ritz et al. ([2015]), utilizing the R package drc with its function drm() and LL2.2() with the following equation: f(x) = d/[1 + exp(b(log(x) − ẽ))] (Ritz et al. [2015]). The logarithm of the half-maximal effective concentration (logEC50) between 0 and the upper limit (d), which was set to 1, is represented by ẽ, x denotes the concentration, and b stands for the slope parameter (Ritz et al. [2015]). In cases with normalizations to responses induced by other compounds, the function LL2.3() was used with a variable upper limit (d; Ritz et al. [2015]). The same equation was used to determine the half-maximal inhibitory concentration (logIC50). Then the logEC50 and logIC50 values were converted into the pIC50 and pEC50 values, which are the negative logarithms to base 10.
Fig. 4 Desensitizing effects of DN-IMI and IMI-olefin on nAChRs. LUHMES neurons differentiated in 384-well plates were pretreated with various concentrations of DN-IMI or IMI-olefin for 4.5 min before different nAChR agonists were applied and [Ca^2+]i signals were recorded. […] Note the treatment scheme (upper right corner), illustrating the experimental design. […] Note the treatment scheme (upper right corner), illustrating the experimental design. Detailed data on n numbers are found in Table S6

[4] = monoprotic base; average of values; ref CHEMBL and ACD; cited from earlier work

NC1=NCCN1Cc1ccc(Cl)nc1 [DN-IMI, desnitro-imidacloprid]
relative pEC50 (AUC of fluorescence) ([1]; normalized to 10 µM nicotine, fit for < 10 µM): 6.5 ± 0.07 | EC50 ([1]; read-out: half-maximal response concentration): 0.3 µM and ~0.3 µM | response without PNU as % of the maximal response obtained in the presence of PNU ([2]; absence of PNU): about 44% | estimated maximum ([2]; absence of PNU, normalized to 10 µM nicotine): ~ 0.44 | relative pEC50 (AUC of fluorescence) ([2]; absence of PNU, normalized to 10 µM nicotine, fit for < 10 µM): 6.8 ± 0.36 | concentration of peak response ([2]; presence of PNU, declining responses at higher concentrations): ~ 3 µM | estimated maximum ([2]; presence of PNU, normalized to 10 µM nicotine): ~ 0.93 | concentrations inhibiting subsequent activation of nAChRs (desensitization) ([3]; BMR10, LUHMES): ≥ 10 nM | times more potent than IMI (desensitization) ([3]; compared to effects of IMI in Loser et al. [2021a]): ~ 70 times | BMC for receptor desensitization ([3]; for a 20% effect): ~ 17 nM | pIC50 for desensitization of the nicotine-evoked response ([3]; pretreatment […], 3 µM nicotine): 6.9 | pKa [4]: 9.6
